In patent US6277867A, “Pesticide compounds, compositions and process for the preparation thereof” (priority 1995, dated 2001):
Like-named read-outs stand apart in the source and are kept apart here.

What was measured:
[1] = tested on: pea aphid (Acyrthosiphon pisun); experiment: Synergist activity against pea aphid, field trial; type: in vivo; details: two days after treatment
Protocol: Synergist Activity Against Pea Aphid (Acyrthosiphon pisun)
Synergist activity of compound No. 599 was tested against pea aphid (Acyrthosiphon pisun) in field trials on small plots (10 m^2). 300 l/ha spray volume was applied using motoric sprayer (Maruyama). Efficacy was expressed by the average number of aphids/leaf before, and two days after the treatment, respectively. (Henderson and Tilton: J. Econ. Entomol., 48:157, 1955).

[2] = tested on: two-spotted spider mite (Tetranychus urticae); experiment: Synergism of acaricidal effect on two-spotted spider mite (leaf-disc dip); type: in vivo; details: alone, 48 hours, read-out: Mortality %
Protocol: Synergism of Acaricidal Effect Investigated on Two-spotted Spider Mite (Tetranychus urticae)
(§1) From the first pair of leaves of a 1 week old bean plant leaf-discs of […] diameter were cut which were treated by dipping them (5 min) into the test solution consisting of the active ingredient and the synergist in definite concentrations. For the preparation of the stock solutions of required concentration, 10% acetone as co-solvent and 0.1% Tween-80 as detergent were applied. The dried leaf-discs were placed on wet surface and they were infected with […]-up female mites per leaf. After 48 hours the mortality was recorded using microscope and a brush. The experiment was performed in 4 replica.

[3] = tested on: house fly (Musca domestica); details: in vivo, topical_or_ocular, 1440 min
Protocol: Investigation of Synergistic Activity on House Fly (Musca domestica) Following Topical Application
In two parallel experiments 10 female. 2-4 day old house flies were treated on the vental side of their thorax with 0.2 μl of the test solution, with the help of Hamilton MicroLab P microdispenser. Beside fixed synergist dose of 1000 ng/fly the animals were treated with carbofuran at a dose of 20 ng/fly. For solvent cellosolve was used. Selection and counting of the flies were performed under the action of CO2. After treatment the flies were kept in plastic cups covered with tulle. Mortality after 24 hours was expressed in %.

[4] = tested on: cotton bollworm (Helicoverpa armigera); experiment: Synergistic activity on cotton bollworm following topical application; details: in vivo
Protocol: Investigation of Synergistic Activity on Cotton Bollworm (Helicoverpa armigera) Following Topical Application
Treatment was performed similarity as described in Example 1. but L2 stadium grubs of cotton bollworms (Helicoverpa armigera) were treated as test animals. From the 24 hour dose--mortality data the LD50 (ng/grub) values were determined using probit analysis. None of the synergists acted at the applied 1000 ng/grub dose. Synergist ratio was calculated as the quotient of the LD50 values of carbofuran administered alone, and with the synergist. The experiments were performed in 2-4 replica.

[5] = tested on: house fly (Musca domestica); experiment: Effect on fecundity, on house fly; type: in vivo; details: 500 ppm in granulated sugar, 48 hours feeding; eggs of next 10 days
Protocol: Investigation of the Effect on Fecundity, on House Fly (Musca domestica)
Groups consisting of freshly hatched 50 male and 50 female flies were fed during 48 hours with granulated sugar comprising 500 ppm of material No. 441 and 484 of the present invention respectively, and the eggs layed on the next 10 days were raised. The fecundity-hindering effect was expressed as the quotient of the emerged flies in the treated and untreated groups. The experiments were performed in 4 replica.

[6] = tested on: house fly (Musca domestica); experiment: Synergist spectrum on house fly, topical; type: in vivo
Protocol: (§2) Investigation of Synergist Spectrum on House Fly (Musca domestica) and Cotton Bollworm (Helicoverpa armigera) Following Topical Administration
(§3) Synerzistic activities of materials No. 279 and 599 of the present invention for various active ingredients were determined on house fly (Musca domestica) and cotton bollworm (Helicoverpa armigera) using methods of treatments as described in biological Examples 1 and 2. For the active ingredients ISO common names are given (see: Pesticide Manual 1994).

[7] = tested on: cotton bollworm (Helicoverpa armigera); experiment: Synergist spectrum on cotton bollworm, topical; type: in vivo
Protocol: as §2, §3

[8] = tested on: resistant house fly, INSEL strain; experiment: Synergistic activity on resistant house fly, INSEL strain; type: in vivo, Musca domestica
Protocol: (§4) Investigation of Synergistic Activity on Resistant House Fly (Musca domestica) Populations
(§5) Investigation was carried out as described in biological Example 1. LD50 values and synergist ratios were determined as given in Example 2.

[9] = tested on: resistant house fly, IX strain; experiment: Synergistic activity on resistant house fly, IX strain; type: in vivo, Musca domestica
Protocol: as §4, §5

[10] = tested on: flies; experiment: Comparative investigations with known reference synergists on flies treated with carbofuran; type: in vivo; details: flies treated with carbofuran and 1000 ng of the synergist
Description: These SR50 ratios were compared to those of the new compounds prepared by us.

[11] = tested on: two-spotted spider mite (Tetranychus urticae); experiment: Synergist activity of compound 599 against two-spotted spider mite; type: in vivo; details: read-out: LC50
Protocol: as §1, with “After 48 hours the mortality was recorded using microscope and a brush.” left out
Synergist activity of compound 599 with various specific acaricides was investigated against two-spotted spider mite (Tetranychus urticae), by the method described in Example 8.

[12] = tested on: house fly (Musca domestica); experiment: Effect of the active ingredient:synergist ratio on the synergistic activity (flies)
Protocol: Effect of the Active Ingredient:Synergist Ratio on the Synergistic Activity
Treatment was performed as described in Example 1. using Hamilton MicroLab P microdispenser. In two parallel experiments 10 female -3 day old flies were treated on the ventral side of their thorax with 0.2 μl test solution. Beside 1000-400-200-80 ng/fly fixed doses of the synergist they were treated with constant 20 ng/fly CARBOFURAN®. Selection and counting of the flies were performed under the action of CO2. After treatment the flies were kept in plastic cups covered with tulle. After 24 hours mortality % was recorded. Depending on the results the experiments were performed in 2-4 replica.

In the case of `O=[N+]([O-])NC1=NCCN1Cc1ccc(Cl)nc1` [IMIDACLOPRID], the “E (%)” value ([1]; dose 120 act. ingr./ha) is reported as 98.4%.
`CC(C)OC(=O)C(O)(c1ccc(Br)cc1)c1ccc(Br)cc1` [BROMOROPYLATE] was tested, and the mortality at 31 ppm [2] was 18%, the mortality at 62 ppm [2] was 28% and the mortality at 125 ppm [2] was 90%.
`CC#CCOC(c1ccc2c(c1)OCO2)C(C)C` (centres unmarked) [Compound 484, 5-[2-Methyl-1-(2-butynyloxy)-propyl]-1,3-benzodioxole] was tested, and the mortality % [3] was 63%, the Synergist ratio [4] was over 5 and the “Hindering effect on fecundity” value [5] was 90%.
`CC#CCOCc1cccc2ccccc12` [Compound 279, 1-naphthyl-methyl 2-butynyl ether] showed a mortality % [3] of 72%, a Synergist ratio [4] of over 5 and a Synergist ratio ([6]; with AMINOCARB) of over 20. For the same compound, the Synergist ratio ([6]; with AZINPHOSMETHYL) was over 5, the Synergist ratio ([6]; with BENDIOCARB) was over 20 and the Synergist ratio ([6]; with CARBOFURAN) was over 20. It also gave a Synergist ratio ([6]; with CHLORPYRIPHOS) of over 5, a Synergist ratio ([6]; with DIOXACARB) of over 20 and a Synergist ratio ([6]; with ESBIOL) of over 5. It also gave a Synergist ratio ([6]; with FENOBUCARB) of over 10, a Synergist ratio ([6]; with IMIDACLOPRID) of over 5 and a Synergist ratio ([6]; with ISOPROCARB) of over 40. For the same compound, the Synergist ratio ([6]; with LINDAN) was over 5, the Synergist ratio ([6]; with METHOMYL) was over 10 and the Synergist ratio ([6]; with PIRIMICARB) was over 20. For the same compound, the Synergist ratio ([6]; with PROPOXUR) was over 20, the Synergist ratio ([6]; with THIODICARB) was over 10 and the Synergist ratio ([7]; with AZINPHOSMETHYL) was over 5. For the same compound, the Synergist ratio ([7]; with BENDIOCARB) was over 10, the Synergist ratio ([7]; with CARBOFURAN) was over 10 and the Synergist ratio ([7]; with CHLORPYRIPHOS) was over 5. The Synergist ratio ([7]; with LINDAN) was over 5, the Synergist ratio ([7]; with PROPOXUR) was over 10 and the LD50 ([8]; ALDICARB + 279) was 172 ng/fly. For the same compound, the SR ([8]; ALDICARB + 279) was 4, the LD50 ([8]; BENDIOCARB + 279) was 150 ng/fly and the SR ([8]; BENDIOCARB + 279) was 667. The LD50 ([8]; CARBOFURAN + 279) was 29 ng/fly, the SR ([8]; CARBOFURAN + 279) was 530 and the LD50 ([8]; ESBIOL + 279) was 794 ng/fly. It also gave an SR ([8]; ESBIOL + 279) of 13, an LD50 ([8]; ISOPROCARB + 279) of 983 ng/fly and an SR ([8]; ISOPROCARB + 279) of 102. It also gave an LD50 ([8]; METHOMYL + 279) of 46 ng/fly, an SR ([8]; METHOMYL + 279) of 10 and an LD50 ([8]; PIRIMICARB + 279) of 696 ng/fly. For the same compound, the SR ([8]; PIRIMICARB + 279) was 145, the LD50 ([9]; ALDICARB + 279) was 507 ng/fly and the SR ([9]; ALDICARB + 279) was 4. For the same compound, the LD50 ([9]; BENDIOCARB + 279) was 746 ng/fly, the SR ([9]; BENDIOCARB + 279) was 134 and the LD50 ([9]; CARBOFURAN + 279) was 94 ng/fly. It also gave an SR ([9]; CARBOFURAN + 279) of 4760, an LD50 ([9]; ISOPROCARB + 279) of 2145 ng/fly and an SR ([9]; ISOPROCARB + 279) of 47. The LD50 ([9]; METHOMYL + 279) was 109 ng/fly, the SR ([9]; METHOMYL + 279) was 5 and the LD50 ([9]; PIRIMICARB + 279) was 3562 ng/fly. The SR ([9]; PIRIMICARB + 279) was 115, the mortality at 31 ppm [2] was 0% and the mortality at 62 ppm [2] was 6%. It also gave a mortality at 125 ppm [2] of 8%, a mortality at 250 ppm ([2]; 250 ppm) of 18% and a mortality at 500 ppm ([2]; 500 ppm) of 30%. The “Synergist ratio SR50” value [10] was 28.7.
`CC(C)(C)c1ccc(CCOc2ncnc3ccccc23)cc1` [FENAZAQUIN] was tested, and the LC50 ([11]; Acaricide/Synergist 1:0, 3 h) was over 1000 µg/mL and the LC50 ([11]; Acaricide/Synergist 1:0, 24 h) was 41.9 µg/mL.
Compound `CCc1nn(C)c(C(=O)NCc2ccc(C(C)(C)C)cc2)c1Cl` [TEBUFENPYRAD] has an LC50 ([11]; Acaricide/Synergist 1:0, 3 h) of over 1000 µg/mL and an LC50 ([11]; Acaricide/Synergist 1:0, 24 h) of 63.4 µg/mL.
In the case of `CC#CCOCc1c(Cl)cccc1Cl` [Compound 503, 2,6-Dichloro-1-(2-butynyloxy-methyl)-benzene], the mortality % [3] is reported as 95%, the Synergist ratio [4] is reported as over 5 and the “24 hour mortality (%)” value ([12]; carbofuran 20 ng/fly + synergist 80 ng/fly) is reported as 37%. For the same compound, the “24 hour mortality (%)” value ([12]; carbofuran 20 ng/fly + synergist 200 ng/fly) was 50%, the “24 hour mortality (%)” value ([12]; carbofuran 20 ng/fly + synergist 400 ng/fly) was 65% and the “24 hour mortality (%)” value ([12]; house fly, in vivo, topical_or_ocular) was 93%. For the same compound, the “Synergist ratio SR50” value [10] was 21.16.
In the case of `Cc1nc(N(C)C)nc(OC(=O)N(C)C)c1C` [PIRIMICARB, reference compound], the LD50 ([8]; active ingredient alone) is reported as over 100000 ng/fly, the LD50 ([9]; active ingredient alone) is reported as over 100000 ng/fly and the “E (%)” value ([1]; dose 80 act. ingr./ha) is reported as 86.3%. The “E (%)” value ([1]; dose 250 act. ingr./ha) was 93.8%.
